{"source": "patent US8785412B2", "about": "“Method for inducing cancer cell apoptosis or inhibiting the cancer cell migration” (National Tsing Hua University, priority 2011, dated 2014)", "key": {"β-catenin": {"tested_on": "β-catenin", "assay": "Western blot of β-catenin after hRPIA siRNA knockdown", "assay_type": "cell-based", "excerpt": "(§1) To examine whether the knockdown of hRPIA in hepatic cancer cells induces cell apoptosis, we used specific siRNA which sequence is: […] (SEQ NO. 1) and; […] (SEQ NO. 2) to knock down hRPIA expression. Next, we used western blot to examine the protein level of caspase-3 and β-catenin. […] A similar data was obtained in PLC5 and HepG2 (FIG. 14B and FIG. 14C respectively).\n(§2) To examine whether the knockdown of hRPIA in colon cancer cells induces cell apoptosis, we used specific siRNA which sequence is: […] (SEQ NO. 1) and; […] ([…]) to knock down hRPIA expression. Next, we used western blot to examine the protein level of caspase-3 and β-catenin."}, "PLC5 liver cancer cells": {"tested_on": "PLC5 liver cancer cells", "assay": "MTT cell viability assay, PLC5", "assay_type": "cell-based", "conditions": "PLC5, 5-FU 0, 5, 15, 25 μg/mL, vs si-negative control transfected cells", "excerpt": "(§3) Further, we used 3-(4,5-dimethylthiazol-2-yl)-2,5-diphenyltetrazolium bromide (MTT) assay to examine whether the knockdown of hRPIA reduces cancer cell viability. […] A similar data was obtained in PLC5 and HepG2 (FIG. 3B and FIG. 3C respectively).\n(§4) Further, we used 3-(4,5-dimethylthiazol-2-yl)-2,5-diphenyltetrazolium bromide (MTT) assay to examine whether the over-expression of hRPIA in cancer cells induces cancer cell viability. […] A similar data was obtained in PLC5 and HepG2 (FIG. 7B and FIG. 7C respectively).\n(§5) To examine the influence of chemotherapeutic agents on cell growth of liver cancer cell after knocking down of hRPIA, we used specific siRNA to knockdown hRPIA expression and then added 5-fluorouracil (5-FU) by 0, 5, 15, 25 μg/mL into Hep3B, PLC5 and HepG2. Further, we used 3-(4,5-dimethylthiazol-2-yl)-2,5-diphenyltetrazolium bromide (MTT) assay to examine whether the over-expression of hRPIA in cancer cells induces cancer cell viability."}, "SW620 colon cancer cells": {"tested_on": "SW620 colon cancer cells", "assay": "MTT cell viability assay, SW620", "assay_type": "cell-based", "excerpt": "(§6) Further, we used 3-(4,5-dimethylthiazol-2-yl)-2,5-diphenyltetrazolium bromide (MTT) assay to examine whether the knockdown of hRPIA reduces cancer cell viability. […] A similar data was obtained in SW620 (FIG. 5B).\n(§7) Further, we used 3-(4,5-dimethylthiazol-2-yl)-2,5-diphenyltetrazolium bromide (MTT) assay to examine whether the over-expression of hRPIA in cancer cells induces cancer cell viability. […] A similar data was obtained in SW620 (FIG. 9B).\nas §5, with “colon” for “liver”, “knock down” for “knockdown”, “SW480” for “Hep3B, PLC5”, “SW620.” for “HepG2.”"}, "SW480 colon cancer cells": {"tested_on": "SW480 colon cancer cells", "assay": "MTT cell viability assay, SW480", "assay_type": "cell-based", "conditions": "for cell viability by MTT assay after hRPIA knockdown: SW480, 20 nM siRNA", "excerpt": "as §6, §7\nas §5, with “colon” for “liver”, “knock down” for “knockdown”, “SW480” for “Hep3B, PLC5”, “SW620.” for “HepG2.”"}, "Hep3B": {"tested_on": "Hep3B", "assay": "Wound healing assay (cell motility), Hep3B", "assay_type": "cell-based", "conditions": "Hep3B, 0, 18 and 24 hours", "protocol": "(§8) To examine whether the knockdown of hRPIA in cancer cells reduces cell motility, we used specific siRNA to knock down hRPIA expression. To quantify the cancer cell survival rate under the treatment of siRNA against hRPIA which sequence is: […] (SEQ NO. 1) and; […] (SEQ NO. 2) for 0, 18 and 24 hours, we perform wound healing assay to examine the cell motility of hRPIA in Hep3B which were treated with siRNA-hRPIA (cultured in 10% fetal bovine serum with DMEM in 37° C., 5% CO2 for 48 hours) as shown in FIG. 12 respectively. As shown in the figs, the cell motility is lower after adding siRNA."}, "SW480": {"tested_on": "SW480", "assay": "Wound healing assay (cell motility), SW480", "assay_type": "cell-based", "conditions": "SW480, 0, 14 and 24 hours", "protocol": "as §8, with “hRPIA in colon cancer cells” for “hRPIA in cancer cells”, “for 0, 14 and 24” for “for 0, 18 and 24”, “hRPIA in SW480 which were” for “hRPIA in Hep3B which were”, “DMEM in 37 °C, 5% CO2” for “DMEM in 37° C., 5% CO2”, “in FIG. 13 respectively. As” for “in FIG. 12 respectively. As”"}, "hRPIA": {"tested_on": "hRPIA", "assay": "Western blot of hRPIA protein level after siRNA knockdown or pcDNA3-hRPIA transfection", "assay_type": "cell-based, human", "conditions": "siRNA knockdown, 48 hours"}, "Hep3B liver cancer cells": {"tested_on": "Hep3B liver cancer cells", "assay": "MTT cell viability assay, Hep3B", "assay_type": "cell-based", "excerpt": "as §3, §4, §5"}, "HepG2 liver cancer cells": {"tested_on": "HepG2 liver cancer cells", "assay": "MTT cell viability assay, HepG2", "assay_type": "cell-based", "conditions": "HepG2, 5-FU 0, 5, 15, 25 μg/mL, vs si-negative control transfected cells", "excerpt": "as §3, §4, §5"}, "caspase-3": {"tested_on": "caspase-3", "assay": "Western blot of caspase-3 after hRPIA siRNA knockdown", "assay_type": "cell-based", "excerpt": "as §1, §2"}}, "data": [{"substance": "siRNA-hRPIA: siRNA against hRPIA, sequence UUCACUUCACUCCAUUUGUGUACCC (SEQ NO. 1) and GGGUACACAAAUGGAGUGAAGUGAA (SEQ NO. 2) (listed as RNA, chemistry not given here)", "values": [{"measurement": "β-catenin protein level (western blot)", "setting": "β-catenin; Hep3B", "value": "slightly reduction"}, {"measurement": "β-catenin protein level (western blot)", "setting": "β-catenin; HepG2", "value": "significant reduction"}, {"measurement": "β-catenin protein level (western blot)", "setting": "β-catenin; PLC5", "value": "slightly reduction"}, {"measurement": "β-catenin protein level (western blot)", "setting": "β-catenin; SW480", "value": "significant reduction"}, {"measurement": "cytotoxicity caused by 5-fluorouracil after hRPIA knockdown (MTT)", "setting": "PLC5 liver cancer cells", "value": "significantly enhanced the cytotoxicity"}, {"measurement": "cell viability by MTT assay after hRPIA knockdown", "setting": "SW620 colon cancer cells; SW620, 20 nM siRNA", "value": "significantly reduced cell viability"}, {"measurement": "cytotoxicity caused by 5-fluorouracil after hRPIA knockdown (MTT)", "setting": "SW620 colon cancer cells; SW620, 5-FU 0, 5, 15, 25 μg/mL, vs si-negative control transfected cells", "value": "significantly enhanced the cytotoxicity"}, {"measurement": "cell viability by MTT assay after hRPIA knockdown", "setting": "SW480 colon cancer cells", "value": "significant reduction in cell viability"}, {"measurement": "cell viability by MTT assay after hRPIA knockdown", "setting": "SW480 colon cancer cells; listed as siRNAs against hRPIA", "value": "significantly reduced cell viability"}, {"measurement": "cytotoxicity caused by 5-fluorouracil after hRPIA knockdown (MTT)", "setting": "SW480 colon cancer cells; SW480, 5-FU 0, 5, 15, 25 μg/mL, vs si-negative control transfected cells", "value": "significantly enhanced the cytotoxicity"}, {"measurement": "cell motility (wound healing assay)", "setting": "Hep3B", "value": "lower"}, {"measurement": "cell motility (wound healing assay)", "setting": "SW480", "value": "lower"}, {"measurement": "hRPIA protein level (western blot)", "setting": "hRPIA; Hep3B liver cancer cells, vs si-negative control", "value": "lower"}, {"measurement": "hRPIA protein level (western blot)", "setting": "hRPIA; HepG2 liver cancer cells", "value": "lower"}, {"measurement": "hRPIA protein level (western blot)", "setting": "hRPIA; PLC5 liver cancer cells, vs si-negative control", "value": "lower"}, {"measurement": "hRPIA protein level (western blot)", "setting": "hRPIA; SW480 colon cancer cells", "value": "lower"}, {"measurement": "hRPIA protein level (western blot)", "setting": "hRPIA; SW620 colon cancer cells", "value": "lower"}, {"measurement": "cell viability by MTT assay after hRPIA knockdown", "setting": "Hep3B liver cancer cells; 20 nM siRNA", "value": "significant reduction in cell viability"}, {"measurement": "cytotoxicity caused by 5-fluorouracil after hRPIA knockdown (MTT)", "setting": "Hep3B liver cancer cells; 5-FU 0, 5, 15, 25 μg/mL, vs si-negative control transfected cells", "value": "significantly enhanced the cytotoxicity"}, {"measurement": "cytotoxicity caused by 5-fluorouracil after hRPIA knockdown (MTT)", "setting": "HepG2 liver cancer cells", "value": "significantly enhanced the cytotoxicity"}, {"measurement": "caspase-3 protein level (western blot)", "setting": "caspase-3; Hep3B, 48 hours", "value": "increased activity of caspase-3"}, {"measurement": "caspase-3 protein level (western blot)", "setting": "caspase-3; HepG2", "value": "increases caspase-3 expression"}, {"measurement": "caspase-3 protein level (western blot)", "setting": "caspase-3; PLC5", "value": "increases caspase-3 expression"}, {"measurement": "caspase-3 protein level (western blot)", "setting": "caspase-3; SW480, 48 hours", "value": "increased activity of caspase-3"}]}]}
